Reference: patent US9120849B2 (priority 2000, dated 2015)
Read-outs that look alike come from different tables or passages of the source.

Assays:
[1] = system: duck hepatitis B virus (DHBV); conditions: 60 minutes, 20° C., Reed and Muench
Protocol: This model uses primary duck hepatocytes (PDHs) as host (Pugh et al., 1999). We isolated and maintained PDHs from less than one week-old seronegative White Pekin ducklings (Anas dornesticus) with modifications from previous procedures (Berry and Friend, 1969, Seglen. 1976, Pugh and Summers, 1989, Pugh et al., 2000, Tuttleman et al., 1986). Briefly, ducks were euthanized by exposing them to C02 and livers were perfused twice via the atrium of the heart with approximately 200 mL each of two solutions. The first solution consisted of SWIM's S-77 medium (Sigma) supplemented with 0.5 mmol/L EGTA, 2 mmol/L Hepes (pH 7.45) and 50 ug/mL penicillin and streptomycin (Biofluids, Rockville, Md.). The second solution contained SWIM's S-77 medium supplemented with 2.5 mmol/L CaCl2, 0.5 mg of collagenase/mL (type I, Sigma, St. Louis) and 50 ug/mL penicillin and streptomycin. These perfusates were administered at approximately 15 mL/minute using a peristaltic pump and the temperature of the perftisate was adjusted to maintain the liver at 37° C. The liver was removed, minced with scissors and repeatedly mixed with a 25 mL pipette for hepatocyte dispersion into complete L-15 medium (Biofluids, Rockville, Md.) supplemented with 0.05-percent (w/v) sodium bicarbonate (Biofluids), 1 mmol/L glutamine (Biofluids), 20 mmol/L HEPES (Biofluids), 50 ug/mL penicillin and streptomycin (Biofluids), I (g/mL insulin (Sigma, St. Louis), and 10 (moi/L hydrocortisone-hemisuccinate (Sigma). Cells were filtered through sterile gauze, centrifuged at 50×g for 4 minutes, and the resulting cell pellet was washed three times with L-15 medium and resuspended in L-15 medium. 12-well plates were seeded with approximately two-mL of the cell suspension (ca. 10^5 cells). Media on the plated cells were aspirated every two days and replaced with fresh L-15 media.
Serum of four week-old congenitally infected duckling served as the source of virus used in these experiments. Treated and control DHBV spiked red cell samples were serially diluted 10-fold in L-15 medium and one-mL volumes were subsequently inoculated into PDH monolayers in quadruplicate. The infected cultures were incubated at 37° C.+20° C. with 5+1% C02 overnight for virus attachment and entry. The inoculum was then removed, cell monolayers washed once with complete L-15 medium to remove excess red blood cells, and then each well was overlaid with approximately 2-mL of fresh L-15 medium. Infected monolayers were incubated an additional 10-14 days at 37(+20° C. with 5+1% C02, with media changes every 2 days.
We detected the presence of DHB V-infected duck hepatocytes by an IFA. Briefly, the medium from the PDH monolayer was removed by aspiration, and the monolayers washed with agitation for 5-10 minutes with 1-2 mL of phosphate buffered saline (PBS). […]

HIV = conditions: CEM cells
Protocol: This example describes one method of inactivation of the purified virus according to the invention by crosslinking of surface proteins. […] Titrations of the fixative were preformed above and below the concentration recommended by the CDC for inactivation of virus in biological fluids (May 8, 1992/41 (RR-8); 001 CDC Guidelines for the Performance of CD4+ T-Cell Determinations in Persons with Human Immunodeficiency Virus Infection). Initially, purified virus was slowly thawed at 2-8° C. for 6-8 hours to minimize lysis of the virus. Next, while on ice, virus was diluted with cold PBS to a final concentration of approximately 1×10^10 copies/mL (cp/mL). […] The reaction mixtures were then incubated at 2-8° C. for 60 minutes while gently rocking. […] After the addition of glycine the reactions were gently rocked for 2 hr. at 2-8° C. To remove glycine and any excess unquenched fixative each reaction mixture was then dialyzed (10-14K m.w. cutoff) against 1 L PBS (pH 7.4, 2-8° C.) for 4 changes. Dialyzed virus was then transferred into a 15 mL tube and centrifuged for 10 min. at 3,000×g to pellet any precipitated virus. A sample of each supernatant was then tested in cell culture for the presence of infectious virus.
The modified virus produced as described in Example 2 was tested to ensure the process inactivated the virus. As an illustration, the CEM cell line, obtained from the American Type Culture Collection was used as a host cell for viral infectivity studies. Advantages of using this line are that establishment of in vitro HIV infection requires relatively few virions and that the infection is chronic rather than lytic, facilitating analysis. For these studies, infection is detected and followed using the ZeptoMetrix HIV p24 Antigen EIA (ZeptoMetrix, Buffalo N.Y.).
CEM cells are cultured in RPMI-1640 containing 10% FBS in 24 well plates Cells are plated at 10^5 cells per well in a 1 ml volume and 100 ul of various dilutions of virus, either treated or untreated, are added to individual wells. Cultures are fed twice weekly by 50% media replacement and culture supernatants are assayed for HIV p24. All cultures initially contain HIV p24. However, in cultures where virus is noninfectious HIV p24 levels decrease over time eventually reaching background levels.
Different dilutions (1:8,000, 1:80,000, and 1:800,000) of treated virus were then placed into cultures of CEM cells and p24 assays were performed on culture supernatants on days 3, 7, 10, and 14 post-inoculation. Data are expressed as pg/ml of HIV p24 protein in the culture supernatants. The standard curve for the p24 assay is linear from 7.8 pg/ml to 125 pg/ml. HIV p24 concentrations below 7.8 pg/ml are expressed as “<7.8 pg/ml” to indicate sensitivity of the assay, and values above 125 pg/ml are expressed as “>125 pg/ml” since the assay is nonlinear above 125 pg/ml.

paraformaldehyde was tested, and the “FFFUD50/mL (log10)” value ([1]; paraformaldehyde column 1) was 0 FFFUD50/mL (log10), the “FFFUD50/mL (log10)” value ([1]; paraformaldehyde column 2) was 0 FFFUD50/mL (log10) and the “FFFUD50/mL (log10)” value ([1]; paraformaldehyde column 3) was 0 FFFUD50/mL (log10). The “FFFUD50/mL (log10)” value ([1]; paraformaldehyde column 4) was 0 FFFUD50/mL (log10), the “HIV p24 protein in culture supernatants” value (HIV; 0.625% paraformaldehyde 60 min, treated HIV diluted 1:8,000, 3 days post-inoculation) was 71.8 pg/mL and the “HIV p24 protein in culture supernatants” value (HIV; 0.625% paraformaldehyde 60 min, treated HIV diluted 1:8,000, 7 days post-inoculation) was 109 pg/mL. The “HIV p24 protein in culture supernatants” value (HIV; 0.625% paraformaldehyde 60 min, treated HIV diluted 1:8,000, 10 days post-inoculation) was 22.9 pg/mL, the “HIV p24 protein in culture supernatants” value (HIV; 0.625% paraformaldehyde 60 min, treated HIV diluted 1:8,000, 14 days post-inoculation) was less than 7.8 pg/mL and the “HIV p24 protein in culture supernatants” value (HIV; 0.625% paraformaldehyde 60 min, treated HIV diluted 1:80,000, 3 days post-inoculation) was less than 7.8 pg/mL. For the same substance, the “HIV p24 protein in culture supernatants” value (HIV; 0.625% paraformaldehyde 60 min, treated HIV diluted 1:80,000, 7 days post-inoculation) was less than 7.8 pg/mL, the “HIV p24 protein in culture supernatants” value (HIV; 0.625% paraformaldehyde 60 min, treated HIV diluted 1:80,000, 10 days post-inoculation) was less than 7.8 pg/mL and the “HIV p24 protein in culture supernatants” value (HIV; 0.625% paraformaldehyde 60 min, treated HIV diluted 1:80,000, 14 days post-inoculation) was less than 7.8 pg/mL. The “HIV p24 protein in culture supernatants” value (HIV; 0.625% paraformaldehyde 60 min, treated HIV diluted 1:800,000, 3 days post-inoculation) was less than 7.8 pg/mL, the “HIV p24 protein in culture supernatants” value (HIV; 0.625% paraformaldehyde 60 min, treated HIV diluted 1:800,000, 7 days post-inoculation) was less than 7.8 pg/mL and the “HIV p24 protein in culture supernatants” value (HIV; 0.625% paraformaldehyde 60 min, treated HIV diluted 1:800,000, 10 days post-inoculation) was less than 7.8 pg/mL. The “HIV p24 protein in culture supernatants” value (HIV; 0.625% paraformaldehyde 60 min, treated HIV diluted 1:800,000, 14 days post-inoculation) was less than 7.8 pg/mL, the “HIV p24 protein in culture supernatants” value (HIV; 1.25% paraformaldehyde 60 min, treated HIV diluted 1:8,000, 3 days post-inoculation) was 41.9 pg/mL and the “HIV p24 protein in culture supernatants” value (HIV; 1.25% paraformaldehyde 60 min, treated HIV diluted 1:8,000, 7 days post-inoculation) was 34.2 pg/mL. The “HIV p24 protein in culture supernatants” value (HIV; 1.25% paraformaldehyde 60 min, treated HIV diluted 1:8,000, 10 days post-inoculation) was less than 7.8 pg/mL, the “HIV p24 protein in culture supernatants” value (HIV; 1.25% paraformaldehyde 60 min, treated HIV diluted 1:8,000, 14 days post-inoculation) was less than 7.8 pg/mL and the “HIV p24 protein in culture supernatants” value (HIV; 1.25% paraformaldehyde 60 min, treated HIV diluted 1:80,000, 3 days post-inoculation) was less than 7.8 pg/mL. The “HIV p24 protein in culture supernatants” value (HIV; 1.25% paraformaldehyde 60 min, treated HIV diluted 1:80,000, 7 days post-inoculation) was less than 7.8 pg/mL, the “HIV p24 protein in culture supernatants” value (HIV; 1.25% paraformaldehyde 60 min, treated HIV diluted 1:80,000, 10 days post-inoculation) was less than 7.8 pg/mL and the “HIV p24 protein in culture supernatants” value (HIV; 1.25% paraformaldehyde 60 min, treated HIV diluted 1:80,000, 14 days post-inoculation) was less than 7.8 pg/mL. For the same substance, the “HIV p24 protein in culture supernatants” value (HIV; 1.25% paraformaldehyde 60 min, treated HIV diluted 1:800,000, 3 days post-inoculation) was less than 7.8 pg/mL, the “HIV p24 protein in culture supernatants” value (HIV; 1.25% paraformaldehyde 60 min, treated HIV diluted 1:800,000, 7 days post-inoculation) was less than 7.8 pg/mL and the “HIV p24 protein in culture supernatants” value (HIV; 1.25% paraformaldehyde 60 min, treated HIV diluted 1:800,000, 10 days post-inoculation) was less than 7.8 pg/mL. The “HIV p24 protein in culture supernatants” value (HIV; 1.25% paraformaldehyde 60 min, treated HIV diluted 1:800,000, 14 days post-inoculation) was less than 7.8 pg/mL, the “HIV p24 protein in culture supernatants” value (HIV; 2.5% paraformaldehyde 60 min, treated HIV diluted 1:8,000, 3 days post-inoculation) was less than 7.8 pg/mL and the “HIV p24 protein in culture supernatants” value (HIV; 2.5% paraformaldehyde 60 min, treated HIV diluted 1:8,000, 7 days post-inoculation) was less than 7.8 pg/mL. The “HIV p24 protein in culture supernatants” value (HIV; 2.5% paraformaldehyde 60 min, treated HIV diluted 1:8,000, 10 days post-inoculation) was less than 7.8 pg/mL, the “HIV p24 protein in culture supernatants” value (HIV; 2.5% paraformaldehyde 60 min, treated HIV diluted 1:8,000, 14 days post-inoculation) was less than 7.8 pg/mL and the “HIV p24 protein in culture supernatants” value (HIV; 2.5% paraformaldehyde 60 min, treated HIV diluted 1:80,000, 3 days post-inoculation) was less than 7.8 pg/mL. The “HIV p24 protein in culture supernatants” value (HIV; 2.5% paraformaldehyde 60 min, treated HIV diluted 1:80,000, 7 days post-inoculation) was less than 7.8 pg/mL, the “HIV p24 protein in culture supernatants” value (HIV; 2.5% paraformaldehyde 60 min, treated HIV diluted 1:80,000, 10 days post-inoculation) was less than 7.8 pg/mL and the “HIV p24 protein in culture supernatants” value (HIV; 2.5% paraformaldehyde 60 min, treated HIV diluted 1:80,000, 14 days post-inoculation) was less than 7.8 pg/mL. For the same substance, the “HIV p24 protein in culture supernatants” value (HIV; 2.5% paraformaldehyde 60 min, treated HIV diluted 1:800,000, 3 days post-inoculation) was less than 7.8 pg/mL, the “HIV p24 protein in culture supernatants” value (HIV; 2.5% paraformaldehyde 60 min, treated HIV diluted 1:800,000, 7 days post-inoculation) was less than 7.8 pg/mL and the “HIV p24 protein in culture supernatants” value (HIV; 2.5% paraformaldehyde 60 min, treated HIV diluted 1:800,000, 10 days post-inoculation) was less than 7.8 pg/mL. For the same substance, the “HIV p24 protein in culture supernatants” value (HIV; 2.5% paraformaldehyde 60 min, treated HIV diluted 1:800,000, 14 days post-inoculation) was less than 7.8 pg/mL, the “HIV p24 protein in culture supernatants” value (HIV; 5.0% paraformaldehyde 60 min, treated HIV diluted 1:8,000, 3 days post-inoculation) was less than 7.8 pg/mL and the “HIV p24 protein in culture supernatants” value (HIV; 5.0% paraformaldehyde 60 min, treated HIV diluted 1:8,000, 7 days post-inoculation) was less than 7.8 pg/mL. The “HIV p24 protein in culture supernatants” value (HIV; 5.0% paraformaldehyde 60 min, treated HIV diluted 1:8,000, 10 days post-inoculation) was less than 7.8 pg/mL, the “HIV p24 protein in culture supernatants” value (HIV; 5.0% paraformaldehyde 60 min, treated HIV diluted 1:8,000, 14 days post-inoculation) was less than 7.8 pg/mL and the “HIV p24 protein in culture supernatants” value (HIV; 5.0% paraformaldehyde 60 min, treated HIV diluted 1:80,000, 3 days post-inoculation) was less than 7.8 pg/mL. The “HIV p24 protein in culture supernatants” value (HIV; 5.0% paraformaldehyde 60 min, treated HIV diluted 1:80,000, 7 days post-inoculation) was less than 7.8 pg/mL, the “HIV p24 protein in culture supernatants” value (HIV; 5.0% paraformaldehyde 60 min, treated HIV diluted 1:80,000, 10 days post-inoculation) was less than 7.8 pg/mL and the “HIV p24 protein in culture supernatants” value (HIV; 5.0% paraformaldehyde 60 min, treated HIV diluted 1:80,000, 14 days post-inoculation) was less than 7.8 pg/mL. For the same substance, the “HIV p24 protein in culture supernatants” value (HIV; 5.0% paraformaldehyde 60 min, treated HIV diluted 1:800,000, 3 days post-inoculation) was less than 7.8 pg/mL and the “HIV p24 protein in culture supernatants” value (HIV; 5.0% paraformaldehyde 60 min, treated HIV diluted 1:800,000, 7 days post-inoculation) was less than 7.8 pg/mL.
